# Assay results from ChEMBL document CHEMBL1697731, “Cheminformatics analysis of assertions mined from literature that describe drug-induced liver injury in different species” (Chem Res Toxicol, 2010).
# What was measured:
# Hepatotoxicity [1] = test: Literature-mined compound from Fourches et al multi-species drug-induced liver injury (DILI) dataset, effect in rodents; details: rodentia
# Hepatotoxicity [2] = test: Literature-mined compound from Fourches et al multi-species drug-induced liver injury (DILI) dataset, effect in humans; details: human
# Hepatotoxicity [3] = test: Literature-mined compound from Fourches et al multi-species drug-induced liver injury (DILI) dataset, effect in non-rodents
SMILES,Hepatotoxicity (Hepatotoxicity [1]),Hepatotoxicity (Hepatotoxicity [2]),Hepatotoxicity (Hepatotoxicity [3]),Hepatotoxicity (Hepatotoxicity [1]; Liver),Hepatotoxicity (Hepatotoxicity [2]; Liver),Hepatotoxicity (Hepatotoxicity [3]; Liver)
CC(=O)Nc1nnc(S(N)(=O)=O)s1 [ACETAZOLAMIDE],drug-induced liver injury reported,drug-induced liver injury reported,drug-induced liver injury reported,,,
CC(=O)O [ACETIC ACID],,,,drug-induced liver injury reported,drug-induced liver injury reported,drug-induced liver injury reported
CC(=O)c1ccc(S(=O)(=O)NC(=O)NC2CCCCC2)cc1 [ACETOHEXAMIDE],no drug-induced liver injury reported,drug-induced liver injury reported,no drug-induced liver injury reported,,,
CC(=O)NO [ACETOHYDROXAMIC ACID],drug-induced liver injury reported,no drug-induced liver injury reported,no drug-induced liver injury reported,,,
CC(=O)Nc1c(I)cc(I)c(C(=O)[O-])c1I.O.[Na+] [ACETRIZOATE SODIUM],drug-induced liver injury reported,no drug-induced liver injury reported,no drug-induced liver injury reported,,,
CC(=O)O[C@H](CC(=O)[O-])C[N+](C)(C)C [ACETYLCARNITINE],drug-induced liver injury reported,no drug-induced liver injury reported,no drug-induced liver injury reported,,,
CC(=O)OCC[N+](C)(C)C [ACETYLCHOLINE],,,,drug-induced liver injury reported,no drug-induced liver injury reported,drug-induced liver injury reported
CC(=O)N[C@@H](CS)C(=O)O [ACETYLCYSTEINE],drug-induced liver injury reported,drug-induced liver injury reported,no drug-induced liver injury reported,,,
COc1cc(C)c(/C=C/C(C)=C/C=C/C(C)=C/C(=O)O)c(C)c1C [ACITRETIN],drug-induced liver injury reported,drug-induced liver injury reported,no drug-induced liver injury reported,,,
Nc1nc2c(ncn2COCCO)c(=O)[nH]1 [ACYCLOVIR],drug-induced liver injury reported,drug-induced liver injury reported,no drug-induced liver injury reported,,,
CC(C)(C)C(=O)OCOP(=O)(COCCn1cnc2c(N)ncnc21)OCOC(=O)C(C)(C)C [ADEFOVIR DIPIVOXIL],drug-induced liver injury reported,drug-induced liver injury reported,no drug-induced liver injury reported,,,
Nc1ncnc2nc[nH]c12 [ADENINE],drug-induced liver injury reported,no drug-induced liver injury reported,no drug-induced liver injury reported,,,
Nc1ncnc2c1ncn2[C@@H]1O[C@H](COP(=O)(O)OP(=O)(O)OP(=O)(O)O)[C@@H](O)[C@H]1O [ADENOSINE TRIPHOSPHATE],drug-induced liver injury reported,no drug-induced liver injury reported,no drug-induced liver injury reported,,,
Nc1ncnc2c1ncn2[C@@H]1O[C@H](CO)[C@@H](O)[C@H]1O [ADENOSINE],drug-induced liver injury reported,drug-induced liver injury reported,drug-induced liver injury reported,,,
CC[C@H]1[C@@H]2C[C@H]3[C@@H]4N(C)c5ccccc5[C@]45C[C@@H]([C@@H]2[C@H]5O)N3[C@@H]1O [AJMALINE],no drug-induced liver injury reported,drug-induced liver injury reported,no drug-induced liver injury reported,,,
N[C@@H](CN(O)N=O)C(=O)O [ALANOSINE],drug-induced liver injury reported,no drug-induced liver injury reported,no drug-induced liver injury reported,,,
CS(=O)(=O)O.C[C@H](N)C(=O)N[C@@H](C)C(=O)N[C@H]1[C@@H]2CN(c3nc4c(cc3F)c(=O)c(C(=O)O)cn4-c3ccc(F)cc3F)C[C@@H]21 [ALATROFLOXACIN MESYLATE],no drug-induced liver injury reported,drug-induced liver injury reported,no drug-induced liver injury reported,,,
CCCSc1ccc2nc(NC(=O)OC)[nH]c2c1 [ALBENDAZOLE],no drug-induced liver injury reported,drug-induced liver injury reported,no drug-induced liver injury reported,,,
CC(C)(C)NCC(O)c1ccc(O)c(CO)c1 (configuration not stated) [ALBUTEROL],,,,drug-induced liver injury reported,no drug-induced liver injury reported,no drug-induced liver injury reported
CCO [ALCOHOL],,,,drug-induced liver injury reported,drug-induced liver injury reported,drug-induced liver injury reported

SMILES,Hepatotoxicity (Hepatotoxicity [1]),Hepatotoxicity (Hepatotoxicity [2]),Hepatotoxicity (Hepatotoxicity [3]),Hepatotoxicity (Hepatotoxicity [1]; Liver),Hepatotoxicity (Hepatotoxicity [2]; Liver),Hepatotoxicity (Hepatotoxicity [3]; Liver)
C=C1/C(=C\C=C2/CCC[C@]3(C)[C@@H]([C@H](C)CCCC(C)C)CC[C@@H]23)C[C@@H](O)C[C@@H]1O [ALFACALCIDOL],no drug-induced liver injury reported,drug-induced liver injury reported,no drug-induced liver injury reported,,,
COc1cc2nc(N(C)CCCNC(=O)C3CCCO3)nc(N)c2cc1OC (configuration not stated) [ALFUZOSIN],no drug-induced liver injury reported,drug-induced liver injury reported,no drug-induced liver injury reported,,,
CC1=C(/C=C/C(C)=C\C=C\C(C)=C\C(=O)O)C(C)(C)CCC1 [ALITRETINOIN],drug-induced liver injury reported,drug-induced liver injury reported,no drug-induced liver injury reported,,,
NC(=O)NC1NC(=O)NC1=O (configuration not stated) [ALLANTOIN],drug-induced liver injury reported,no drug-induced liver injury reported,no drug-induced liver injury reported,,,
C=CCC1(CC=C)C(=O)NC(=O)NC1=O [ALLOBARBITAL],drug-induced liver injury reported,no drug-induced liver injury reported,no drug-induced liver injury reported,,,
Oc1ncnc2[nH]ncc12 [ALLOPURINOL],drug-induced liver injury reported,drug-induced liver injury reported,no drug-induced liver injury reported,,,
CCCCC[C@H](O)/C=C/[C@H]1[C@H](O)CC(=O)[C@@H]1CCCCCCC(=O)O [ALPROSTADIL],drug-induced liver injury reported,drug-induced liver injury reported,drug-induced liver injury reported,,,
CCN(CCCc1ccccc1)CCCc1ccccc1 [ALVERINE],no drug-induced liver injury reported,drug-induced liver injury reported,no drug-induced liver injury reported,,,
CN1CC[C@H](c2c(O)cc(O)c3c(=O)cc(-c4ccccc4Cl)oc23)[C@H](O)C1 [ALVOCIDIB],no drug-induced liver injury reported,drug-induced liver injury reported,no drug-induced liver injury reported,,,
NC12CC3CC(CC(C3)C1)C2 [AMANTADINE],drug-induced liver injury reported,no drug-induced liver injury reported,no drug-induced liver injury reported,,,
COC(c1ccccc1)(c1ccccc1)[C@H](Oc1nc(C)cc(C)n1)C(=O)O [AMBRISENTAN],no drug-induced liver injury reported,no drug-induced liver injury reported,drug-induced liver injury reported,,,
Nc1c(Br)cc(Br)cc1CN[C@H]1CC[C@H](O)CC1 [AMBROXOL],drug-induced liver injury reported,no drug-induced liver injury reported,no drug-induced liver injury reported,,,
NCC[C@H](O)C(=O)N[C@@H]1C[C@H](N)[C@@H](O[C@H]2O[C@H](CN)[C@@H](O)[C@H](O)[C@H]2O)[C@H](O)[C@H]1O[C@H]1O[C@H](CO)[C@@H](O)[C@H](N)[C@H]1O [AMIKACIN],no drug-induced liver injury reported,drug-induced liver injury reported,drug-induced liver injury reported,,,
N=C(N)NC(=O)c1nc(Cl)c(N)nc1N [AMILORIDE],drug-induced liver injury reported,drug-induced liver injury reported,no drug-induced liver injury reported,,,
O=C(O)CCCCCCNC1c2ccccc2CCc2ccccc21 [AMINEPTINE],drug-induced liver injury reported,drug-induced liver injury reported,no drug-induced liver injury reported,,,
Nc1ccc(C(=O)O)cc1 [AMINOBENZOIC ACID],drug-induced liver injury reported,no drug-induced liver injury reported,no drug-induced liver injury reported,,,
NCCCCCC(=O)O [AMINOCAPROIC ACID],no drug-induced liver injury reported,drug-induced liver injury reported,no drug-induced liver injury reported,,,
CCC1(c2ccc(N)cc2)CCC(=O)NC1=O (configuration not stated) [AMINOGLUTETHIMIDE],drug-induced liver injury reported,no drug-induced liver injury reported,no drug-induced liver injury reported,,,
Cn1c(=O)c2[nH]cnc2n(C)c1=O.Cn1c(=O)c2[nH]cnc2n(C)c1=O.NCCN [AMINOPHYLLINE],drug-induced liver injury reported,drug-induced liver injury reported,no drug-induced liver injury reported,,,
